Source: the NIST ThermoML archive (doi:10.1016/j.fluid.2004.10.028)
Numbers after ± are expanded uncertainties.

Details: Liquid, Capillary tube (Ostwald / Ubbelohde) method

O [water]
viscosity [mPa·s]
Details	296.7 K	338.3 K	372.4 K	413.62 K	469.4 K	500.22 K	544.23 K	573.7 K
5000 kPa	0.918 ± 0.028	0.431 ± 0.013	0.286 ± 0.009	0.196 ± 0.006	–	–	–	–
10000 kPa	0.917 ± 0.028	0.434 ± 0.013	0.287 ± 0.009	0.197 ± 0.006	0.138 ± 0.004	0.12 ± 0.004	0.0983 ± 0.0032	0.086 ± 0.0028
20000 kPa	0.915 ± 0.028	0.435 ± 0.013	0.288 ± 0.009	0.201 ± 0.006	0.141 ± 0.004	0.123 ± 0.004	0.1012 ± 0.0033	0.0891 ± 0.0029
40000 kPa	0.914 ± 0.028	0.44 ± 0.014	0.293 ± 0.009	0.205 ± 0.006	0.145 ± 0.005	0.127 ± 0.004	0.106 ± 0.0034	0.095 ± 0.0031
